Measurements as given in patent US7947692B2, “Substituted thiazolo[5,4-d]pyrimidine urea derivatives” (Hoffmann-La Roche Inc., priority 2006, dated 2011).

Molecular target: T1, human adenosine A2B receptor (Homo sapiens, UniProt P29275)
T1 construct: expressed in transfected cells; host or cells: CHO.K1
T1 sequence (P29275 1-332): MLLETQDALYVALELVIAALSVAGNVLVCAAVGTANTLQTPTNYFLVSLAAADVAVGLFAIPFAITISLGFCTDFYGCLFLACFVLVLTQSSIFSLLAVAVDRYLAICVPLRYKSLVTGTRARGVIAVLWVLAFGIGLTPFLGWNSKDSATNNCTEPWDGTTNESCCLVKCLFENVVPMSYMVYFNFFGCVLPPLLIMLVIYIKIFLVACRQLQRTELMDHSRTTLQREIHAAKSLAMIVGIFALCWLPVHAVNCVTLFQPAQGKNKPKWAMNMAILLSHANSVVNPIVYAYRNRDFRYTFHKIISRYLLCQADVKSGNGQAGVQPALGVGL
Assay: Inhibitory activity on NECA-induced cyclic AMP production in CHO.K1 cells expressing human adenosine A2B receptor
Format: cell-based
Conditions: 100 nM NECA, cAMP (HitHunter kit), 30-45 min incubation
Method: Cells were cultured under 5%CO2/95% […] atmosphere at 37° C. in DMEM and D-MEM/F-12 (1:1 mixture) medium (Invitrogen, Grand Island, N.Y.) with 10% fetal calf serum (Invitrogen, Grand Island, N.Y.), 100 U/mL penicillin (Invitrogen, Grand Island, N.Y.), 100 U/mL streptomycin (Invitrogen, Grand Island, N.Y.), 1 mg/mL G418 (Invitrogen, Grand Island N.Y.) and 0.2 mg/mL Hygromycin B (Invitrogen, Carlsbad, Calif.). Experimental cultures were grown overnight as a monolayer in 384-well tissue culture plates (0.06 ml/well-7500 cells/well). Each well was washed once with 0.1 mL of Krebs buffer. To each well was added 50 uL of Krebs buffer containing 100 uM of the phosphodiesterase inhibitor 4-(3-butoxy-4-methoxybenzyl)-2-imidazolidinone, 100 nM NECA (Sigma-Aldrich, St. Louis, Mo.), 0.02% BSA Fraction V (Roche Biochemicals), the test compound (appropriate concentration). The final concentration of DMSO was 1.1%. After incubation for 30-45 min, the wells were emptied and blotted on paper towel to remove residual solution. The HitHunter™ cAMP Assay Kit from DiscoverX for adherent cells (Fremont, Calif.) was used for lysing the cells and measuring cAMP concentrations.

| IC50 [µM] | Compound |
| --- | --- |
| 0.002 | COc1ncnc2sc(NC(=O)N3CCC(NCc4ccc(F)c(C(F)(F)F)c4)C3)nc12 (stereo in doubt) [Example 87, (R)-3-(4-Fluoro-3-trifluoromethyl-benzylamino)-pyrrolidine-1-carboxylic acid (7-methoxy-thiazolo[5,4-d]pyrimidin-2-yl)-amide] |
| 0.005 | COc1ncnc2sc(NC(=O)N3CCN(Cc4cccc(C(F)(F)F)c4)CC3)nc12 [Example 1, 4-(3-trifluoromethyl-benzyl)-piperazine-1-carboxylic acid (7-methoxy-thiazolo[5,4-d]pyrimidin-2-yl)-amide] |
| 0.03 | COC(=O)c1cccc(CN2CCN(C(=O)Nc3nc4c(OC)ncnc4s3)CC2)c1 [Example 10, 3-[4-(7-Methoxy-thiazolo[5,4-d]pyrimidin-2-ylcarbamoyl)-piperazin-1-ylmethyl]-benzoic acid methyl ester] |
| 0.197 | COc1ncnc2sc(NC(=O)N3CCN(Cc4cccc(OCCO)c4)CC3)nc12 [Example 16, 4-[3-(2-Hydroxy-ethoxy)-benzyl]-piperazine-1-carboxylic acid (7-methoxy-thiazolo[5,4-d]pyrimidin-2-yl)-amide] |
| 1.56 | COc1ncnc2sc(NC(=O)N3CCN(Cc4cccc(C(=O)O)c4O)CC3)nc12 [Example 27, 2-Hydroxy-3-[4-(7-methoxy-thiazolo[5,4-d]pyrimidin-2-ylcarbamoyl)-piperazin-1-ylmethyl]-benzoic acid] |
| 0.009 | COc1ncnc2sc(NC(=O)N3CCC4(CC3)C(=O)NC[C@H]4c3ccc(F)cc3)nc12 [Example 31, 4-(4-Fluoro-phenyl)-1-oxo-2,8-diazaspiro[4,5]decane-8-carboxylic acid(7-methoxy-thiazolo[5,4-d]pyrimidin-2-yl)-amide] |
| 0.009 | COc1ncnc2sc(NC(=O)N3CCC4(CC3)CN(S(C)(=O)=O)c3ccc(Cl)cc34)nc12 [Example 48, 5-Chloro-1,2-dihydro-N-(7-methoxythiazole[5,4-d]pyrimidin-2-yl)-1-(methylsulfonyl)spiro[3H-indole-3,4′-piperidine]-1′-carboxamide] |
| 1.46 | CCOC(=O)C1(Cc2ccc(OC(F)(F)F)cc2)CCCN(C(=O)Nc2nc3c(OC)ncnc3s2)C1 (centres unmarked) [Example 54, 1-(7-Methoxy-thiazolo[5,4-d]pyrimidin-2-ylcarbamoyl)-3-(4-trifluoromethoxy-benzyl)-piperidine-3-carboxylic acid ethyl ester] |
| 0.052 | COc1ncnc2sc(NC(=O)N3CCC(n4c(=O)[nH]c5ccccc54)CC3)nc12 [Example 57, 4-(2-Oxo-2,3-dihydro-benzoimidazol-1-yl)-piperidine-1-carboxylic acid (7-methoxy-thiazolo[5,4-d]pyrimidin-2-yl)-amide] |
| 0.218 | COc1ncnc2sc(NC(=O)N3CCC(N4CCCC4c4ccccc4)CC3)nc12 (centres unmarked) [Example 62, 4-(2-Phenyl-pyrrolidin-1-yl)-piperidine-1-carboxylic acid (7-methoxy-thiazolo[5,4-d]pyrimidin-2-yl)-amide] |
| 0.051 | COc1ncnc2sc(NC(=O)N3CC=C(c4cccc(C(F)(F)F)c4)CC3)nc12 [Example 67, 4-(3-Trifluoromethyl-phenyl)-3,6-dihydro-2H-pyridine-1-carboxylic acid (7-methoxy-thiazolo[5,4-d]pyrimidin-2-yl)-amide] |
| 0.073 | COC(=O)c1ccccc1S(=O)(=O)C1CCN(C(=O)Nc2nc3c(OC)ncnc3s2)CC1 [Example 76, 2-[1-(7-Methoxy-thiazolo[5,4-d]pyrimidin-2-ylcarbamoyl)-piperidine-4-sulfonyl]-benzoic acid methyl ester] |
| 0.004 | COc1ncnc2sc(NC(=O)N3CC[C@H](NC(=O)c4ccc(F)c(C(F)(F)F)c4)C3)nc12 [Example 89, (S)-3-(4-fluoro-3-trifluoromethyl-benzoylamino)-pyrrolidine-1-carboxylic acid (7-methoxy-thiazolo[5,4-d]pyrimidin-2-yl)-amide] |
| 0.115 | COc1ncnc2sc(NC(=O)N3CCc4cc(C(F)(F)F)ccc4C3)nc12 [Example 95, 6-Trifluoromethyl-3,4-dihydro-1H-isoquinoline-2-carboxylic acid (7-methoxy-thiazolo[5,4-d]pyrimidin-2-yl)-amide] |
